Measurements as given in US20240366594A1, “Small Molecule Inhibitors of Formation of Neutrophil-Derived Extracellular Traps (NETosis) and Uses Thereof” (The Brigham and Women's Hospital, Inc., priority 2021, published 2024).

System: mice challenged with LPS
Experiment: In vivo LPS-induced septic shock
Set-up: species or system mouse
Conditions: for platelet counts in the blood: 2 h post LPS challenge, compared with LPS alone, FIGS. 4C, 8D; for pro-inflammatory cytokine production (serum, ELISA): FIGS. 4E-4G; for neutrophils levels (blood and peritoneal lavage): FIGS. 8A-8C; for release of NETs by neutrophils in the peritoneal lavage (CitH3-positive neutrophils): cytofluorimetry, FIG. 4D; for body temperature 2 h post challenge: ricolinostat 30 mg/kg/dose or GSK484 25 mg/kg/dose i.p., FIG. 4B
Protocol: FIGS. 4A-G. Class I/IIb HDAC inhibition protects against systemic inflammation • (A) Time line of drug treatment and LPS priming and challenge. Mice were intraperitoneally injected, or not, with two doses of ricolinostat or GSK484 and were then intraperitoneally administered with two doses of LPS (−5 h, 1 mg/kg and 0 h, 2 mg/kg) to induce lethal sepsis. Peritoneal lavage and blood were collected 2 h after the LPS challenge. • (B) Body temperature was measured 2 h post challenge. • (C) Concentration of platelets in the blood was measured by cytofluorimetry. • (D) NETosis was measured as neutrophils (Ly6G+/CD11b+) positive for citrullinated histone H3 staining in the peritoneal lavage. • (E-G) Serum cytokines were measured by ELISA. […] Statistics were calculated using one-way ANOVA (*p<0.05; ** p<0.01; *** p<0.001; ****p<0.0001; n.s., not significant). n=15 for each group except the GSK484-treated group (n=10). Gray stars represent comparison of all experimental groups with the saline-treated healthy control. Black stars represent comparison of drug-treated groups with LPS-stimulated mice without drug treatment. Violin plots represent median (dashed line) with quartiles (dotted line). See also FIGS. 8A-F.
FIGS. 8A-F. Class I/IIb HDAC inhibition protects against systemic inflammation. • A-C) Neutrophils numbers and percentage were calculated in blood (A, B) and peritoneal lavage (C) of mice challenged, or not, with LPS. Saline group represent healthy mice. NT group represent mice that were challenged with LPS without receiving any drug. Ricolinostat (30 mg/kg/dose) or GSK484 (25 mg/kg/dose) were administered intraperitoneally at day −1, and 2 hour prior LPS priming. • D) Concentration of platelets in the blood was assessed by cytofluorimetry 2 hours post LPS-challenge. • E, F) Absolute amounts of serum cytokines were measured by ELISA. Violin plots represent median (dashed line) with quartiles (dotted line). Statistics were calculated using One-way ANOVA (*P<0.05; **P<0.01; ***P<0.001; ****P<0.0001; n.s., not significant). Grey stars represent comparison of all experimental groups with the saline control. Black stars represent comparison of drug treated groups with NT group.
Alternatively, neutrophils positive for citrullinated histone H3 were quantified by cytofluorimetry. Briefly, neutrophils from bronco-alveolar lavage fluid or peritoneal lavage fluid were stained for Ly6G, CD11b, CD45 and Zombie dye for 20 minutes at room temperature and then fixed with BD FACS Lysing Solution (cat #349202, BD Biosciences). Samples were washed twice with Intracellular Staining Permeabilization Wash buffer (cat #421002, Biolegend), incubated with anti-citrullinated histone H3 antibody (Abcam) 1 hour at room temperature and subsequently with PE anti-rabbit antibody for 30 minutes. Finally, samples were acquired with BD FACS Fortessa and neutrophils (CD45+/Ly6G+/CD11b+) positive for citrullinated histone H3 were quantified with FlowJo software.
8-week-old female mice were primed with 1 mg/kg of LPS intra peritoneum (i.p.) for 5 hours and then challenged with 2 mg/kg of LPS i.p. Ricolinostat was used at 30 mg/kg/dose, GSK484 at 25 mg/kg/dose and dexamethasone at 10 mg/kg/dose. Drugs were administered i.p. at day −1 and 2 hours prior priming. Blood samples were collected 2 hours post-challenge and cytokines were measured by ELISA. The platelet concentrations and neutrophils numbers in the blood and peritoneal cavity were calculated by cytofluorimetry using CountBright Absolute Cell Counting Beads (Thermo Scientific) according to the manufacturer's instructions. NETosis was measured as quantity of neutrophils in the peritoneal lavage positive for citrullinated histone H3 by cytofluorimetry.

For O=C(CCCCCCNC(=O)c1cnc(N(c2ccccc2)c2ccccc2)nc1)NO [ricolinostat], the “platelet counts in the blood” value was “significantly higher”, the “pro-inflammatory cytokine production (serum, ELISA)” value was “significantly decreased” and the “neutrophils levels (blood and peritoneal lavage)” value was “increased neutrophils levels”. For the same compound, the “release of NETs by neutrophils in the peritoneal lavage (CitH3-positive neutrophils)” value was “reduced release of NETs”, the “pro-inflammatory cytokine production (serum, ELISA), comparison with dexamethasone” value (dexamethasone 10 mg/kg/dose, ricolinostat 30 mg/kg/dose, FIGS. 8E and 8F) was “efficiently reduced” and the “body temperature 2 h post challenge” value was “no temperature loss”.

With COc1cc(C(=O)N2CC[C@@H](O)[C@@H](N)C2)cc2nc(-c3cc4ccccc4n3CC3CC3)n(C)c12 [GSK484] the “platelet counts in the blood” value was “significantly higher”, the “pro-inflammatory cytokine production (serum, ELISA)” value was “significantly decreased” and the “neutrophils levels (blood and peritoneal lavage)” value was “increased neutrophils levels”. The “release of NETs by neutrophils in the peritoneal lavage (CitH3-positive neutrophils)” value was “reduced release of NETs” and the “body temperature 2 h post challenge” value was “no temperature loss”.
